Results taken from PubChem BioAssay AID1963981 (Molecular Pharmacology Branch, DTP, NCI, 2024).
pIC50: −log10 of the molar value.

Test system: 354836-022-R-J1-PDC multicell spheroid viability
Assay: Anticancer human tumor 354836-022-R-J1-PDC patient-derived head and neck squamous cell carcinoma cell line growth inhibition [PI3K]
Details: for pIC50: curve of first compound; for viability, T/C: stronger effect = lower value; active = viability on the fitted dose curve at most 10% of control; inactive = the rest
Method in brief: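 Agents were dosed from a top concentration near clinical Cmax (otherwise 10 microM) in half-log decrements, alone or combined with PI3K inhibitors. The spheroids contain tumor cells plus endothelial (HUVEC) and MSC stroma; viability is measured.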

[1] = second compound 0.0316 µM, first compound 0.0316 µM
[2] = second compound 0.0316 µM, first compound 0.1 µM
[3] = second compound 0.0316 µM, first compound 0.316 µM
[4] = second compound 0.0316 µM, first compound 1 µM
[5] = second compound 0.0316 µM, first compound 3.16 µM
[6] = second compound 0.0316 µM, first compound 10 µM
[7] = second compound 0.1 µM, first compound 0.0316 µM
[8] = second compound 0.1 µM, first compound 0.1 µM
[9] = second compound 0.1 µM, first compound 0.316 µM
[10] = second compound 0.1 µM, first compound 1 µM
[11] = second compound 0.1 µM, first compound 3.16 µM
[12] = second compound 0.1 µM, first compound 10 µM
[13] = second compound 0.316 µM, first compound 0.0316 µM
[14] = second compound 0.316 µM, first compound 0.1 µM
[15] = second compound 0.316 µM, first compound 0.316 µM
[16] = second compound 0.316 µM, first compound 1 µM
[17] = second compound 0.316 µM, first compound 3.16 µM
[18] = second compound 0.316 µM, first compound 10 µM
[19] = second compound 1 µM, first compound 0.0316 µM
[20] = second compound 1 µM, first compound 0.1 µM
[21] = second compound 1 µM, first compound 0.316 µM
[22] = second compound 1 µM, first compound 1 µM
[23] = second compound 1 µM, first compound 3.16 µM
[24] = second compound 1 µM, first compound 10 µM
[25] = second compound 3.16 µM, first compound 0.0316 µM
[26] = second compound 3.16 µM, first compound 0.1 µM
[27] = second compound 3.16 µM, first compound 0.316 µM
[28] = second compound 3.16 µM, first compound 1 µM
[29] = second compound 3.16 µM, first compound 3.16 µM
[30] = second compound 3.16 µM, first compound 10 µM
[31] = second compound 10 µM, first compound 0.0316 µM
[32] = second compound 10 µM, first compound 0.1 µM
[33] = second compound 10 µM, first compound 0.316 µM
[34] = second compound 10 µM, first compound 1 µM
[35] = second compound 10 µM, first compound 3.16 µM
[36] = second compound 10 µM, first compound 10 µM
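Also: spheroids exposed to agents for seven days before the viability read.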

C#Cc1c(F)ccc2cc(O)cc(-c3ncc4c(N5CC6CCC(C5)N6)nc(OCC56CCCN5CC(F)C6)nc4c3F)c12 (stereo not drawn) + Cc1nc(NC(=O)N2CCCC2C(N)=O)sc1-c1ccnc(C(C)(C)C(F)(F)F)c1
> 7.50: pIC50 (second compound 10 µM)
< 5.00: pIC50 (second compound 0.0316 µM) | pIC50 (second compound 0.1 µM) | pIC50 (second compound 0.316 µM) | pIC50 (second compound 1 µM) | pIC50 (second compound 3.16 µM)
inactive: viability, T/C [1] 95% | viability, T/C [2] 99.3% | viability, T/C [3] 103% | viability, T/C [4] 95.4% | viability, T/C [5] 106% | viability, T/C [6] 93.9% | viability, T/C [7] 98.5% | viability, T/C [8] 101% | viability, T/C [9] 98.4% | viability, T/C [10] 87.2% | viability, T/C [11] 96% | viability, T/C [12] 93.6% | viability, T/C [13] 76% | viability, T/C [14] 83.9% | viability, T/C [15] 91.3% | viability, T/C [16] 94.1% | viability, T/C [17] 83.8% | viability, T/C [18] 85.3% | viability, T/C [19] 75.9% | viability, T/C [20] 90.5% | viability, T/C [21] 77.8% | viability, T/C [22] 76.2% | viability, T/C [23] 92.7% | viability, T/C [24] 62.2% | viability, T/C [25] 55.6% | viability, T/C [26] 60.7% | viability, T/C [27] 57.3% | viability, T/C [28] 63.4% | viability, T/C [29] 52.6% | viability, T/C [30] 55.7% | viability, T/C [31] 34.2% | viability, T/C [32] 32.7% | viability, T/C [33] 35.6% | viability, T/C [34] 36.3% | viability, T/C [35] 36.6% | viability, T/C [36] 26%

C=CC(=O)N1CCN(c2nc(=O)n(-c3c(C)ccnc3C(C)C)c3nc(-c4c(O)cccc4F)c(F)cc23)C(C)C1 (stereo not drawn) + Cc1nc(NC(=O)N2CCCC2C(N)=O)sc1-c1ccnc(C(C)(C)C(F)(F)F)c1
> 7.50: pIC50 (second compound 10 µM)
inactive: viability, T/C [1] 100% | viability, T/C [2] 90.5% | viability, T/C [3] 96.2% | viability, T/C [4] 87.7% | viability, T/C [5] 113% | viability, T/C [6] 92.5% | viability, T/C [7] 118% | viability, T/C [8] 100% | viability, T/C [9] 97.2% | viability, T/C [10] 96.7% | viability, T/C [11] 110% | viability, T/C [12] 105% | viability, T/C [13] 90.5% | viability, T/C [14] 99.2% | viability, T/C [15] 92.1% | viability, T/C [16] 90.6% | viability, T/C [17] 105% | viability, T/C [18] 97.6% | viability, T/C [19] 72.6% | viability, T/C [20] 77.8% | viability, T/C [21] 84.1% | viability, T/C [22] 105% | viability, T/C [23] 88% | viability, T/C [24] 89.4% | viability, T/C [25] 57.8% | viability, T/C [26] 65.8% | viability, T/C [27] 71.8% | viability, T/C [28] 72.2% | viability, T/C [29] 90.7% | viability, T/C [30] 60.2% | viability, T/C [31] 36.8% | viability, T/C [32] 36.5% | viability, T/C [33] 33.7% | viability, T/C [34] 46.4% | viability, T/C [35] 43.8% | viability, T/C [36] 29.5%
< 5.00: pIC50 (second compound 0.0316 µM) | pIC50 (second compound 0.1 µM) | pIC50 (second compound 0.316 µM) | pIC50 (second compound 1 µM) | pIC50 (second compound 3.16 µM)

CC(Cn1ccc(-c2ccc(C#N)c(Cl)c2)n1)NC(=O)c1cc(C(C)O)[nH]n1 (stereo not drawn) + Cc1nc(NC(=O)N2CCCC2C(N)=O)sc1-c1ccnc(C(C)(C)C(F)(F)F)c1
inactive: viability, T/C [1] 109% | viability, T/C [2] 88.7% | viability, T/C [3] 96% | viability, T/C [4] 83.6% | viability, T/C [5] 97.4% | viability, T/C [6] 71.6% | viability, T/C [7] 106% | viability, T/C [8] 93% | viability, T/C [9] 97.8% | viability, T/C [10] 85.6% | viability, T/C [11] 91.1% | viability, T/C [12] 82% | viability, T/C [13] 88.8% | viability, T/C [14] 91.8% | viability, T/C [15] 81% | viability, T/C [16] 102% | viability, T/C [17] 81.2% | viability, T/C [18] 67.6% | viability, T/C [19] 74.2% | viability, T/C [20] 66% | viability, T/C [21] 83% | viability, T/C [22] 82.3% | viability, T/C [23] 83.3% | viability, T/C [24] 61.9% | viability, T/C [25] 62.4% | viability, T/C [26] 61.1% | viability, T/C [27] 60.5% | viability, T/C [28] 71.8% | viability, T/C [29] 71.3% | viability, T/C [30] 57% | viability, T/C [31] 43.6% | viability, T/C [32] 33.7% | viability, T/C [33] 39.9% | viability, T/C [34] 44.4% | viability, T/C [35] 45.5% | viability, T/C [36] 37.1%
> 7.50: pIC50 (second compound 10 µM)
< 5.00: pIC50 (second compound 0.0316 µM) | pIC50 (second compound 0.1 µM) | pIC50 (second compound 0.316 µM) | pIC50 (second compound 1 µM) | pIC50 (second compound 3.16 µM)

CC1(C)CCC(Nc2ncc(C(F)(F)F)c(-c3c[nH]c4c(P(C)(C)=O)c(C#N)ccc34)n2)CN1 (stereo not drawn) + Cc1nc(NC(=O)N2CCCC2C(N)=O)sc1-c1ccnc(C(C)(C)C(F)(F)F)c1
> 7.50: pIC50 (second compound 0.0316 µM) | pIC50 (second compound 0.1 µM) | pIC50 (second compound 0.316 µM) | pIC50 (second compound 1 µM) | pIC50 (second compound 3.16 µM) | pIC50 (second compound 10 µM)
active: viability, T/C [30] 1% | viability, T/C [35] 12.3% | viability, T/C [36] 0.79%
inactive: viability, T/C [1] 20.2% | viability, T/C [2] 20.2% | viability, T/C [3] 26.7% | viability, T/C [4] 25.1% | viability, T/C [5] 29.1% | viability, T/C [6] 2.24% | viability, T/C [7] 22.8% | viability, T/C [8] 21.6% | viability, T/C [9] 25.9% | viability, T/C [10] 23% | viability, T/C [11] 28.9% | viability, T/C [12] 1.52% | viability, T/C [13] 17.8% | viability, T/C [14] 20% | viability, T/C [15] 19.3% | viability, T/C [16] 25% | viability, T/C [17] 24% | viability, T/C [18] 1.82% | viability, T/C [19] 14.9% | viability, T/C [20] 18% | viability, T/C [21] 14.6% | viability, T/C [22] 20.5% | viability, T/C [23] 20.2% | viability, T/C [24] 1.74% | viability, T/C [25] 13.2% | viability, T/C [26] 15.6% | viability, T/C [27] 14.9% | viability, T/C [28] 15.1% | viability, T/C [29] 18.4% | viability, T/C [31] 12.7% | viability, T/C [32] 10.6% | viability, T/C [33] 11.6% | viability, T/C [34] 17.2%
